# Publication PMC3251925 (Bioorganic & medicinal chemistry, 2011)
# pIC50: −log10 of the molar value. Read-outs that look alike come from different tables or passages of the source.
# Legend:
# Edema Factor (EF) [1] = target: T1, Edema Factor (EF) (Bacillus anthracis, UniProt P40136); experiment: cell-based; assay type: cell-based
# [2] = in vivo; cited from earlier work
# Edema Factor (EF) [3] = target: T1, Edema Factor (EF); conditions: read-out: IC50, inhibition of cAMP production induced by edema toxin; cited from earlier work
# RAW 264.7 cells = conditions: added alone, at the highest dose tested
# [4] = test system: enterotoxigenic E.coli (ETEC); conditions: cited from earlier work
# cholera toxin = conditions: cited from earlier work
# [5] = test system: human GADD45α gene-GFP reporter in TK6 cells (GenM-T01, GenM-C01)
# [6] = test system: enterotoxigenic E.coli (ETEC); assay type: in vivo; conditions: assuming 5 ml serum/mouse
# T1 sequence (P40136 whole entry, looked up): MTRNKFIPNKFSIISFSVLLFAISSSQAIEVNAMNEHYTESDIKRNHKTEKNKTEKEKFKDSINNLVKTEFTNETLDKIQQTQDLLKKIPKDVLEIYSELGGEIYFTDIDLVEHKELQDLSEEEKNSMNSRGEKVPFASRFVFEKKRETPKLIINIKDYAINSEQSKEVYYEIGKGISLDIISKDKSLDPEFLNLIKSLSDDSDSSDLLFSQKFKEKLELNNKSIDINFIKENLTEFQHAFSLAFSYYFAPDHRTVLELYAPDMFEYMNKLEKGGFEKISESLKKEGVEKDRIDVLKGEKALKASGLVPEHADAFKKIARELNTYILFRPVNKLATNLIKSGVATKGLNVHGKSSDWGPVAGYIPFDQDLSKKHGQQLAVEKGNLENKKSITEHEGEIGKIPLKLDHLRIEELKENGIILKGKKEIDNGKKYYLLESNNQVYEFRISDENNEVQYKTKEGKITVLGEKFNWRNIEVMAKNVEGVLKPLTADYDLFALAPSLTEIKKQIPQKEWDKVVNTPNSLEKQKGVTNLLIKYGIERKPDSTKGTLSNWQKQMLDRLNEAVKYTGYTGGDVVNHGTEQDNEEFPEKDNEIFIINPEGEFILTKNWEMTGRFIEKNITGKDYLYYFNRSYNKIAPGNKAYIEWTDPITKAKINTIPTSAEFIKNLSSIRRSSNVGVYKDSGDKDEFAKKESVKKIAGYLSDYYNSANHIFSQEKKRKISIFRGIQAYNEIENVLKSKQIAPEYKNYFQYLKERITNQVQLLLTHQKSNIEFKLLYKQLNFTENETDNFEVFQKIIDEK
molecule,measurement,setting,value
3-[(Biphenyl-3-carbonyl)-amino]-benzoic acid [Compound 2],IC50,Edema Factor (EF) [1]; read-out: IC50 (μM) Assay 1,19 µM
"O=C(O)c1cccc(NC(=O)c2cccc3c2C(=O)c2ccccc2-3)c1 [Compound 1, 3-(9-oxo-9H-fluorene-1-carboxamido)benzoic acid]",Obvious toxic effect in mouse studies,[2],no obvious toxic effect
same,pIC50,Edema Factor (EF) [1],4.91 to 5.79
same,pIC50,Edema Factor (EF) [3],5.05 to 5.70
same,Obvious toxicity to cultured cells,RAW 264.7 cells,no obvious toxic effect
same,Effective dose to reduce diarrhea in mice (from ETEC),"[4]; intraperitoneally or by gavage, per mouse",7.5 to 15 µg
same,Diarrhea caused by ETEC,"[4]; mouse, oral gavage dose of 15 μg/mouse",reduced diarrhea
same,Levels of bacteria in the colons of infected and treated mice,[4]; versus mice that did not receive the compound,much lower
same,Inhibition of cholera toxin,cholera toxin,inhibits cholera toxin
same,Mutagenicity,tester strain TAMix,non-mutagenic
same,Number of revertants,tester strain TAMix,doubling
same,Concentration determined to be cytotoxic,[5],62.5 µg/mL
same,Concentration with genotoxic activity (positive response),[5],62.5 µg/mL
same,Active dose in mice expressed as concentration,[6],about 3 μg/ml
"O=C(Nc1ccccc1)c1cccc2c1C(=O)c1ccccc1-2 [Compound 4, 9-oxo-N-phenyl-9H-fluorene-1-carboxamide]","EF inhibitory activity, in words",Edema Factor (EF) [1],relatively inactive
"Nc1ccc(NC(=O)c2cccc3c2C(=O)c2ccccc2-3)c(C(=O)O)c1 [Compound 6, 5-Amino-2-(9-oxo-9H-fluorene-1-carboxamido)benzoic acid]","EF inhibitory activity, in words",Edema Factor (EF) [1],inactive
"O=C(O)c1cc(NC(=O)c2cccc3c2C(=O)c2ccccc2-3)ccc1O [Compound 9, 2-Hydroxy-5-(9-oxo-9H-fluorene-1-carboxamido)benzoic acid]","EF inhibitory activity, in words",Edema Factor (EF) [1],inactive
"Nc1cc(NC(=O)c2cccc3c2C(=O)c2ccccc2-3)cc(C(=O)O)c1 [Compound 10, 3-amino-5-(9-oxo-9H-fluorene-1-carboxamido)benzoic acid]",pIC50,Edema Factor (EF) [1],5.89
same,Obvious toxicity to cultured cells,RAW 264.7 cells,neither caused obvious toxicity
"COC(=O)c1cc(NC(=O)c2cccc3c2C(=O)c2ccccc2-3)ccc1O [Compound 14, Methyl 2-hydroxy-5-(9-oxo-9H-fluorene-1-carboxamido)benzoate]","EF inhibitory activity, in words",Edema Factor (EF) [1],completely inactive
same,pIC50,Edema Factor (EF) [1],3.60
"CN(C)c1cccc(NC(=O)c2cccc3c2C(=O)c2ccccc2-3)c1 [Compound 19, N-(3-(dimethylamino)phenyl)-9-oxo-9H-fluorene-1-carboxamide]",Obvious toxicity to cultured cells,RAW 264.7 cells,neither caused obvious toxicity
